Assay results published in ChEMBL document CHEMBL1201862, “PubChem BioAssay data set” (2004).
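Each compound was tested at five concentrations against cells in 96-well plates for 48 hours. GI50 marks 50% less growth.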 Activity calls are given as the source filed them. Rule as the data show it: active = GI50 up to about 1.1 µM and inactive = higher.

What was measured:
Assay in all cases: NCI-60 cell line screen, 48 h
OVCAR-4 = tested on: OVCAR-4
HT-29 = tested on: HT-29
PC-3 = tested on: PC-3
MDA-MB-435 = tested on: MDA-MB-435
MCF7 = tested on: MCF7
HCT-116 = tested on: HCT-116
SNB-75 = tested on: SNB-75
OVCAR-8 = tested on: OVCAR-8
U-251 = tested on: U-251
ACHN = tested on: ACHN
T47D = tested on: T47D
HCC 2998 = tested on: HCC 2998
OVCAR-5 = tested on: OVCAR-5
A498 = tested on: A498
HOP-92 = tested on: HOP-92
SK-MEL-28 = tested on: SK-MEL-28
SF-295 = tested on: SF-295
HL-60 = tested on: HL-60
TK-10 = tested on: TK-10
NCI-H522 = tested on: NCI-H522

| Compound | GI50 (OVCAR-4) | GI50 (HT-29) | GI50 (PC-3) | GI50 (MDA-MB-435) | GI50 (MCF7) | GI50 (HCT-116) | GI50 (SNB-75) | GI50 (OVCAR-8) | GI50 (U-251) | GI50 (ACHN) | GI50 (T47D) | GI50 (HCC 2998) | GI50 (OVCAR-5) | GI50 (A498) | GI50 (HOP-92) | GI50 (SK-MEL-28) | GI50 (SF-295) | GI50 (HL-60) | GI50 (TK-10) | GI50 (NCI-H522) |
| --- | --- | --- | --- | --- | --- | --- | --- | --- | --- | --- | --- | --- | --- | --- | --- | --- | --- | --- | --- | --- |
| NC1CNC(=O)c2c(Cl)sc(Cl)c21 (configuration not stated) | > 100 µM (inactive) | > 100 µM (inactive) | > 100 µM (inactive) | > 100 µM (inactive) | > 100 µM (inactive) | > 100 µM (inactive) | > 100 µM (inactive) | > 100 µM (inactive) | > 100 µM (inactive) | > 100 µM (inactive) | > 100 µM (inactive) | > 100 µM (inactive) | > 100 µM (inactive) | > 100 µM (inactive) | > 100 µM (inactive) | > 100 µM (inactive) | > 100 µM (inactive) | > 10 µM (inactive) | > 100 µM (inactive) | – |
| COc1cc(/C=C2\N=C(c3ccccc3)N(c3ccc(S(=O)(=O)Nc4nccs4)cc3)C2=O)ccc1O | > 100 µM (inactive) | 59.7 µM (inactive) | 82.6 µM (inactive) | 95.3 µM (inactive) | 67.1 µM (inactive) | 70.3 µM (inactive) | 62.8 µM (inactive) | > 100 µM (inactive) | 75.5 µM (inactive) | > 100 µM (inactive) | 85.5 µM (inactive) | – | > 100 µM (inactive) | > 100 µM (inactive) | 40.7 µM (inactive) | – | > 100 µM (inactive) | 51.2 µM (inactive) | > 100 µM (inactive) | 50.4 µM (inactive) |
| CCCCNC(=O)Nc1c(C(N)=O)c2n(c1C(=O)OCC)CCCCC2 | > 100 µM (inactive) | > 100 µM (inactive) | > 100 µM (inactive) | > 100 µM (inactive) | > 100 µM (inactive) | > 100 µM (inactive) | > 100 µM (inactive) | > 100 µM (inactive) | > 100 µM (inactive) | > 100 µM (inactive) | > 100 µM (inactive) | > 100 µM (inactive) | – | > 100 µM (inactive) | > 100 µM (inactive) | > 100 µM (inactive) | > 100 µM (inactive) | > 100 µM (inactive) | > 100 µM (inactive) | – |
| CCOC(=O)c1c(-c2ccc(Br)cc2)ccn1C | > 10 µM (inactive) | > 10 µM (inactive) | > 10 µM (inactive) | > 10 µM (inactive) | > 10 µM (inactive) | > 10 µM (inactive) | > 10 µM (inactive) | > 10 µM (inactive) | > 10 µM (inactive) | > 10 µM (inactive) | > 10 µM (inactive) | > 10 µM (inactive) | > 10 µM (inactive) | > 10 µM (inactive) | – | > 10 µM (inactive) | > 10 µM (inactive) | > 10 µM (inactive) | > 10 µM (inactive) | > 10 µM (inactive) |
| COc1cc(/C=N/N=C(\N)NO)cc(OC)c1OC | 40.8 µM (inactive) | 22.8 µM (inactive) | 44.6 µM (inactive) | 44.6 µM (inactive) | 22.6 µM (inactive) | 32.1 µM (inactive) | – | 18.5 µM (inactive) | 52.2 µM (inactive) | 21.5 µM (inactive) | 36.6 µM (inactive) | 36.6 µM (inactive) | 49.5 µM (inactive) | 46.3 µM (inactive) | 23.5 µM (inactive) | 57 µM (inactive) | 25.2 µM (inactive) | 23 µM (inactive) | > 100 µM (inactive) | 34.8 µM (inactive) |
| Cn1c2c(c3ccccc31)CC(=O)N1CCCC(C1)CC21OCCO1 (configuration not stated) | > 100 µM (inactive) | > 100 µM (inactive) | > 100 µM (inactive) | > 100 µM (inactive) | > 100 µM (inactive) | 41.7 µM (inactive) | > 100 µM (inactive) | > 100 µM (inactive) | > 100 µM (inactive) | > 100 µM (inactive) | > 100 µM (inactive) | > 100 µM (inactive) | > 100 µM (inactive) | > 100 µM (inactive) | > 100 µM (inactive) | > 100 µM (inactive) | > 100 µM (inactive) | > 100 µM (inactive) | > 100 µM (inactive) | – |
| CCOC1=NC(C(F)(F)F)(C(F)(F)F)N=C(/N=C(/N)N(C)C(C(C)C)P(=O)(OC(C)C)OC(C)C)O1 (configuration not stated) | – | > 100 µM (inactive) | > 100 µM (inactive) | > 100 µM (inactive) | > 100 µM (inactive) | 82.2 µM (inactive) | 44.8 µM (inactive) | 48.5 µM (inactive) | 64.9 µM (inactive) | 44.7 µM (inactive) | 52.7 µM (inactive) | > 100 µM (inactive) | > 100 µM (inactive) | > 100 µM (inactive) | – | > 100 µM (inactive) | 83.8 µM (inactive) | 27.7 µM (inactive) | > 100 µM (inactive) | 27.9 µM (inactive) |
| CN(C)C(=O)OC1=CC2CCC(C1)N2C (configuration not stated) | > 100 µM (inactive) | > 100 µM (inactive) | 97.5 µM (inactive) | > 100 µM (inactive) | 66.1 µM (inactive) | > 100 µM (inactive) | > 100 µM (inactive) | > 100 µM (inactive) | 87.3 µM (inactive) | 82 µM (inactive) | > 100 µM (inactive) | – | > 100 µM (inactive) | > 100 µM (inactive) | > 100 µM (inactive) | > 100 µM (inactive) | > 100 µM (inactive) | – | > 100 µM (inactive) | > 100 µM (inactive) |
| COC(=O)C[C@H](COCc1ccccc1)NC(=O)C[C@H](COCc1ccccc1)NC(=O)OC(C)(C)C | 18.5 µM (inactive) | 30 µM (inactive) | 26.9 µM (inactive) | 34 µM (inactive) | 19.8 µM (inactive) | 27.5 µM (inactive) | 25.1 µM (inactive) | 24.7 µM (inactive) | 27.9 µM (inactive) | 38.6 µM (inactive) | 33.9 µM (inactive) | – | 33.8 µM (inactive) | 27.1 µM (inactive) | 23.7 µM (inactive) | > 100 µM (inactive) | 34.1 µM (inactive) | > 100 µM (inactive) | – | 21.2 µM (inactive) |
| CCCCCC[C@H]1C(=O)O[C@H](C)[C@H](NC(=O)c2cccc(NC=O)c2OC)C(=O)O[C@@H](C)[C@@H]1OC(=O)C(C)CC.CCCCCC[C@H]1C(=O)O[C@H](C)[C@H](NC(=O)c2cccc(NC=O)c2OC)C(=O)O[C@@H](C)[C@@H]1OC(=O)CC(C)C (some centres not stated) | 5.41 µM (inactive) | 8.59 µM (inactive) | 6.28 µM (inactive) | 11.6 µM (inactive) | 4.88 µM (inactive) | 10.1 µM (inactive) | – | 11.6 µM (inactive) | 11.7 µM (inactive) | 5.83 µM (inactive) | 20.8 µM (inactive) | 89.7 µM (inactive) | > 100 µM (inactive) | 12.4 µM (inactive) | 17.5 µM (inactive) | > 100 µM (inactive) | 14.5 µM (inactive) | 4.53 µM (inactive) | 16 µM (inactive) | 12.2 µM (inactive) |
| NCCCC[C@H](N)C(=O)Nc1ccc(-c2nc3ccccc3s2)cc1Cl | – | 6.79 µM (inactive) | 14.9 µM (inactive) | 4.9 µM (inactive) | < 0.034 µM (active) | 0.713 µM (active) | 9.77 µM (inactive) | 7.71 µM (inactive) | 2.65 µM (inactive) | 13.4 µM (inactive) | < 0.0478 µM (active) | 0.681 µM (active) | 0.34 µM (active) | 0.149 µM (active) | 18.8 µM (inactive) | 7.89 µM (inactive) | 5 µM (inactive) | – | 0.0353 µM (active) | 4.84 µM (inactive) |
| O=C(c1ccco1)C1CC(c2ccc3ccccc3c2O)=NN1 (configuration not stated) | > 100 µM (inactive) | 86.5 µM (inactive) | 70.8 µM (inactive) | 56.6 µM (inactive) | 46.5 µM (inactive) | 57.4 µM (inactive) | > 100 µM (inactive) | 83.2 µM (inactive) | > 100 µM (inactive) | > 100 µM (inactive) | 92.7 µM (inactive) | > 100 µM (inactive) | > 100 µM (inactive) | > 100 µM (inactive) | > 100 µM (inactive) | > 100 µM (inactive) | 55.8 µM (inactive) | – | > 100 µM (inactive) | > 100 µM (inactive) |
| CSC(=S)N/N=C(\C)c1ccc(S(=O)(=O)N(C)c2ccccc2)cc1 | 25.6 µM (inactive) | 26.1 µM (inactive) | 19.3 µM (inactive) | 22.9 µM (inactive) | 18.2 µM (inactive) | 14.3 µM (inactive) | 39.3 µM (inactive) | 31.6 µM (inactive) | 24.7 µM (inactive) | 22.6 µM (inactive) | 66.5 µM (inactive) | > 100 µM (inactive) | > 100 µM (inactive) | 89.7 µM (inactive) | 23.8 µM (inactive) | 34.8 µM (inactive) | 12.8 µM (inactive) | 6.5 µM (inactive) | > 100 µM (inactive) | – |
| CCOC(=O)c1cc(C(=O)c2ccccc2)n2nc(-c3ccc(Cl)cc3)ccc12 | 16.6 µM (inactive) | 23.7 µM (inactive) | 15.5 µM (inactive) | 33.6 µM (inactive) | 20.9 µM (inactive) | 44.7 µM (inactive) | – | – | 23.1 µM (inactive) | 15 µM (inactive) | 21.9 µM (inactive) | 23.2 µM (inactive) | 23.3 µM (inactive) | 16.8 µM (inactive) | 24.8 µM (inactive) | 28.4 µM (inactive) | 20.4 µM (inactive) | > 100 µM (inactive) | 19.3 µM (inactive) | 18.5 µM (inactive) |
| OC1(c2ccc(Cl)cc2)c2c(ccc3c2OCO3)C2=NCCN21 (configuration not stated) | 45.8 µM (inactive) | 29.6 µM (inactive) | 42.7 µM (inactive) | 28.1 µM (inactive) | 33.7 µM (inactive) | 36.8 µM (inactive) | 6.14 µM (inactive) | 67.5 µM (inactive) | 44.9 µM (inactive) | 38 µM (inactive) | 31.7 µM (inactive) | – | 65.3 µM (inactive) | 20.1 µM (inactive) | 16.7 µM (inactive) | 17.9 µM (inactive) | 36.6 µM (inactive) | 38.8 µM (inactive) | 15 µM (inactive) | – |
